Experimental data as given in patent US8536198B2, “Piperidine derivatives as modulators of chemokine receptor activity” (Bristol-Myers Squibb Company, priority 2007, dated 2013).

molecular target: CCR1 (Homo sapiens (Human), UniProt P32246); experiment: CCR1 Ligand Binding Scintillation Proximity Assay (SPA); conditions: [125I]-MIP-1α competition binding on THP-1 monocytic leukemia cells, 12 h at room temperature
Procedure: CCR1 Ligand Binding Scintillation Proximity Assay (SPA)
For radioligand competition studies, a final concentration of 1×10^5 THP-1 monocytic leukemia cells are combined with 100 μg of LS WGA PS beads (Amersham, Cat.#: RPNQ 0260) in 40 μl of assay buffer (RPMI 1640 without phenol red, 50 mM HEPES, 5 mM MgCl2, 1 mM CaCl2, 0.1% BSA). The THP-1 cell/bead mixture is added to each well of a 384-well assay plate (PerkinElmer, Cat. #:6007899) containing test compound in 3-fold serial dilution, with final concentrations ranging from 8 μM to […]. A final concentration of 0.1 nM [^125I]-MIP-1α (PerkinElmer, Cat. # NEX298) in 20 μl assay buffer is added to the reaction. Sealed assay plates are incubated at room temperature for 12 h then analyzed by LEADseeker™.
The competition data of the test compound over a range of concentrations is plotted as percentage inhibition of radioligand specific bound in the absence of test compound (percent of total signal). After correcting for non-specific binding, IC50 values are determined. The IC50 value is defined as the concentration of test compound needed to reduce [^125I]-MIP-1α specific binding by 50% and is calculated using the four parameter logistic equation to fit the normalized data. The Ki values are determined by application of the Cheng-Prusoff equation to the IC50 values, where Ki=IC50/(1+ ligand concentration/Kd) The Kd of [^125I]-MIP-1α in THP-1 cells is 0.1 nM. Each experiment is run in duplicate.

Sequence of CCR1 (P32246 whole entry): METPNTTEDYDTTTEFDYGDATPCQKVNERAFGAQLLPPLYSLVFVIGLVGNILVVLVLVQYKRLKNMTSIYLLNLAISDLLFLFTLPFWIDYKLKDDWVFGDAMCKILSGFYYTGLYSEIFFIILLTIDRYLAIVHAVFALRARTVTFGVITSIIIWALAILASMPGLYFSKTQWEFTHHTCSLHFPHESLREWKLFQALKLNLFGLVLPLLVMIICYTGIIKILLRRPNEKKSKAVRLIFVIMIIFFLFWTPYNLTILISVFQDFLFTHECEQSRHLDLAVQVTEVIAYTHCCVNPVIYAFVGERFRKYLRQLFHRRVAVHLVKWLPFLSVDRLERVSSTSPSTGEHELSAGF

Compound	IC50 [nM]
CC(C)(C)OC(=O)N[C@@H]1CCC[C@@H]1C(=O)N1CC[C@](O)(c2ccc(Cl)cc2)C(C)(C)C1 [Example 7, tert-Butyl (1R,2S)-2-((S)-4-(4-chlorophenyl)-4-hydroxy-3,3-dimethylpiperidine-1-carbonyl)cyclopentylcarbamate]	12.1
CC1(C)CN(C(=O)[C@H]2CCCC[C@H]2NC(=O)[C@@H](O)c2ccccc2)CC[C@]1(O)c1ccc(Cl)cc1 [Example 68]	581
CC1(C)CN(C(=O)[C@H]2CCC[C@H]2NC(=O)c2cccc(C(N)=O)c2)CC[C@]1(O)c1ccc(Cl)cc1 [Example 89]	1.8
CC1(C)CN(C(=O)[C@H]2CCCC[C@@]2(C)NC(=O)c2ccccc2)CC[C@]1(O)c1ccc(Cl)cc1 [Example 104]	818
C[C@H](NC(=O)N[C@@H]1CCCC[C@@H]1C(=O)N1CC[C@](O)(c2ccc(Cl)cc2)C(C)(C)C1)C(C)(C)O [Example 106]	0.7
CC1(C)CN(C(=O)[C@H]2CCCC[C@H]2NC(=O)Nc2ccccc2)CC[C@]1(O)c1ccc(Cl)cc1 [Example 35]	18.5
CC1(C)CN(C(=O)[C@H]2CCC[C@H]2NC(=O)c2cccc(C(=O)O)c2)CC[C@]1(O)c1ccc(Cl)cc1 [Example 85]	1.6
CC1(C)CN(C(=O)[C@H]2CCCC[C@H]2NC(=O)c2cccc(C(=O)O)c2)CC[C@]1(O)c1ccc(C#N)cc1 [Example 100, 3-((1R,2S)-2-((S)-4-(4-Cyanophenyl)-4-hydroxy-3,3-dimethylpiperidine-1-carbonyl)cyclohexylcarbamoyl)benzoic acid]	11.3
CC1(C)CN(C(=O)[C@H]2CCC[C@H]2NC(=O)[C@@H]2CC[C@H](O)C2)CC[C@]1(O)c1ccc(Cl)cc1 [Example 83]	14
CC1(C)CN(C(=O)[C@H]2CCC[C@H]2NC(=O)[C@H]2CC[C@@H](O)C2)CC[C@]1(O)c1ccc(Cl)cc1 [Example 84]	1.5
CC1(C)CN(C(=O)[C@H]2CCCC[C@H]2NC(=O)c2ccccc2)CC[C@]1(O)c1ccc(Cl)cc1 [Example 2, N-((1R,2S)-2-((S)-4-(4-Chlorophenyl)-4-hydroxy-3,3-dimethylpiperidine-1-carbonyl)cyclohexyl)benzamide]	2.1
CC1(C)CN(C(=O)[C@H]2CCCC[C@H]2NC(=O)[C@H](O)c2ccccc2)CC[C@]1(O)c1ccc(Cl)cc1 [Example 67]	858
CC1(C)CN(C(=O)[C@H]2CC(=O)CC[C@H]2NC(=O)c2ccccc2)CC[C@]1(O)c1ccc(Cl)cc1 [Example 11, N-((1R,2S)-2-((S)-4-(4-Chlorophenyl)-4-hydroxy-3,3-dimethylpiperidine-1-carbonyl)-4-oxocyclohexyl)benzamide]	17.2
CC1(C)CN(C(=O)[C@H]2CC3(CC[C@H]2NC(=O)c2ccccc2)OCCO3)CC[C@]1(O)c1ccc(Cl)cc1 [Example 10, N-((7S,8R)-7-((S)-4-(4-Chlorophenyl)-4-hydroxy-3,3-dimethylpiperidine-1-carbonyl)-1,4-dioxaspiro[4.5]decan-8-yl)benzamide]	1060
CC1(C)CN(C(=O)[C@H]2CCC[C@H]2NC(=O)c2cccc(S(N)(=O)=O)c2)CC[C@]1(O)c1ccc(Cl)cc1 [Example 80]	1
CC1(C)CN(C(=O)[C@H]2CCC[C@H]2NC(=O)C2CCCC2)CC[C@]1(O)c1ccc(Cl)cc1 [Example 86]	1.3
CC1(C)CN(C(=O)[C@H]2CCCC[C@H]2NC(=O)CCc2ccccc2)CC[C@]1(O)c1ccc(Cl)cc1 [Example 60]	15.7
COC(=O)N[C@@H]1CCCC[C@@H]1C(=O)N1CC[C@](O)(c2ccc(Cl)cc2)C(C)(C)C1 [Example 41]	997
C[C@@H](O)CNC(=O)N[C@@H]1CCCC[C@@H]1C(=O)N1CC[C@](O)(c2ccc(Cl)cc2)C(C)(C)C1 [Example 76]	14.6
CC1(C)CN(C(=O)[C@H]2CCCC[C@H]2NC(=O)CO)CC[C@]1(O)c1ccc(Cl)cc1 [Example 61]	768
CC1(C)CN(C(=O)[C@H]2CCC[C@H]2NC(=O)Nc2ccccc2)CC[C@]1(O)c1ccc(Cl)cc1 [Example 9, 1-((1R,2S)-2-((S)-4-(4-Chlorophenyl)-4-hydroxy-3,3-dimethylpiperidine-1-carbonyl)cyclopentyl)-3-phenylurea]	11.5
CC1(C)CN(C(=O)[C@H]2CCCC[C@H]2NC(=O)c2cncnc2)CC[C@]1(O)c1ccc(Cl)cc1 [Example 57]	18.7
CC1(C)CN(C(=O)[C@H]2CCCC[C@H]2NC(=O)CCN2CCCCC2)CC[C@]1(O)c1ccc(Cl)cc1 [Example 58]	932
